Experimental findings from patent US5599806A, “Hydrazino and hydroxyamino-14-β-hydroxyandrostane derivatives active on the cardiovascular system processes for their preparation and pharmaceutical compositions containing same” (Sigma-Tau Industrie Farmaceutiche Riunite S.p.A., priority 1994, dated 1997) are described below.

Experiment [1] deals with Na^+, K^+ -ATPase receptor. Nature of the experiment: displacement of the specific ^3 H-ouabain binding from the Na^+, K^+ -ATPase receptor. The settings on record: ^3 H-ouabain displacement, purified Na^+.
Source text: a) displacement of the specific ^3 H-ouabain binding from the Na^+, K^+ -ATPase receptor purified according to Jorghensen (Jorghensen P., BBA, 1974, 356, 36) and Erdmann (Erdmann E. et al., Arzneim. Forsh., 1984, 34, 1314);
For experiment [2], the target named is T1, purified Na^+, K^+ -ATPase (Canis lupus familiaris, UniProt P50997).
T1 construct: from tissue
Nature of the experiment: inhibition of the activity of the purified Na^+, K^+ -ATPase (hydrolysis of ^32 P-ATP). It counts as biochemical. An excerpt:
To test the affinity for the receptor site of the Na^+, K^+ -ATPase and the inhibition of the activity of the enzyme, the following tests were used:
b) inhibition of the activity of the purified Na^+, K^+ -ATPase measured as % of hydrolysis of ^32 P-ATP in the presence and in the absence of the tested compound (Doucet A. et al., Am. J. Physiol., 1986, 251, F851)

[3] abbreviates: hydrolysis of ^32 P-ATP, purified Na^+, K^+ -ATPase, read-out: Inhibitory Activity (-log IC50) (converted).

Where two headings read alike, the source gives them in different places.

For `CN(C)CCONC[C@H]1CC[C@]2(O)[C@@H]3CC[C@@H]4C[C@@H](OCCN)CC[C@]4(C)[C@H]3CC[C@]12C` [Comp. I-bc, 3β-(2-Aminoethoxy)-17β-(2-dimethylaminoethoxyamino)methyl-5β-androstane-14β-ol], the “Binding ^3 H-Ouab. Displacement (-log IC50)” value in experiment [1] was found to be 6.1. For the same compound, the IC50 (commonly the concentration at which inhibition is half-maximal) in experiment [2] (setting [3]) is 39.8 µM.
Regarding `CONC[C@H]1CC[C@]2(O)[C@@H]3CC[C@@H]4C[C@@H](O)CC[C@]4(C)[C@H]3CC[C@]12C` [Comp. I-ai, 17β-Methoxyaminomethyl-5β-androstane-3β,14β-diol], the “Binding ^3 H-Ouab. Displacement (-log IC50)” value in experiment [1] is listed as 5.1.
Consider `C[C@]12CC[C@H](O)C[C@H]1CC[C@@H]1[C@@H]2CC[C@]2(C)[C@@H](CNNC3=NCCN3)CC[C@]12O` [Comp. I-ab, 17β-[2-(2-Imidazolin-2-yl)]hydrazinomethyl-5β-androstane-3β,14β-diol], for which the “Binding ^3 H-Ouab. Displacement (-log IC50)” value in experiment [1] turned out to be 6.6. For the same compound, the IC50 in experiment [2] (setting [3]) is 3.16 µM.
As for `C[C@]12CC[C@H](O)C[C@H]1CC[C@@H]1[C@@H]2CC[C@]2(C)[C@@H](CNNC3=NCCCN3)CC[C@]12O` [Comp. I-ad, 17β-[2-(1,4,5,6-Tetrahydro-2-pyrimidinyl)]hydrazinomethyl-5β-androstane-3β,14β-diol], the “Binding ^3 H-Ouab. Displacement (-log IC50)” value in experiment [1] stood at 6.5. In experiment [2], this compound showed an IC50 of 3.98 µM.
With `CN(C)CCONC[C@H]1CC[C@]2(O)[C@@H]3CC[C@@H]4C[C@@H](OCCCN5CCCC5)CC[C@]4(C)[C@H]3CC[C@]12C` [Comp. I-be, 3β-(3-(1-Pyrrolidinyl)propoxy)-17β-(2-dimethylaminoethoxyamino)methyl-5β-androstane-3β,14β-diol], in experiment [1], the “Binding ^3 H-Ouab. Displacement (-log IC50)” value amounted to 6.0.
As to `C[C@]12CC[C@H](O)C[C@H]1CC[C@@H]1[C@@H]2CC[C@]2(C)[C@@H](CNOCCCN)CC[C@]12O` [Comp. I-ak, 17β-(3-Aminopropoxyamino)methyl-5β-androstane-3β,14β-diol], the “Binding ^3 H-Ouab. Displacement (-log IC50)” value in experiment [1] is 6.9. This compound also showed an IC50 in experiment [2] of 2.51 µM.
Regarding `C[C@]12CC[C@H](O)C[C@H]1CC[C@@H]1[C@@H]2CC[C@]2(C)[C@@H](CNOCCNC(=N)N)CC[C@]12O` [Comp. I-aq, 17β-(2-Guanidinoethoxyamino)methyl-5β-androstane-3β,14β-diol], the “Binding ^3 H-Ouab. Displacement (-log IC50)” value in experiment [1] was 6.0. Besides, the IC50 in experiment [2] (setting [3]) was 39.8 µM.
In experiment [2], `CN(C)CCCCONC[C@H]1CC[C@]2(O)[C@@H]3CC[C@@H]4C[C@@H](O)CC[C@]4(C)[C@H]3CC[C@]12C` [Comp. I-ao, 17β-(4-Dimethylaminobutoxyamino)methyl-5β-androstane-3β,14β-diol] showed an IC50 of 79.4 µM.
As to `CC(=C[C@H]1CC[C@]2(O)[C@@H]3CC[C@@H]4C[C@@H](O)CC[C@]4(C)[C@H]3CC[C@]12C)CNOCCN(C)C` [Comp. I-av, 17β-[3-(2-Dimethylaminoethoxyamino)-2-methyl-1-propenyl]-5β-androstane-3β,14β-diol], in experiment [1], the “Binding ^3 H-Ouab. Displacement (-log IC50)” value is reported as 5.7. The IC50 in experiment [2] was 63.1 µM.
On the same counts, the results for `C[C@]12CC[C@H](O)C[C@H]1CC[C@@H]1[C@@H]2CC[C@]2(C)[C@@H](C=CCNOCCN)CC[C@]12O` [Comp. I-at, 17β-[3-(2-Aminoethoxyamino)-1-propenyl]-5β-androstane-3β,14β-diol] are 6.7 and 10 µM.
For the compound `C[C@]12CC[C@H](O)C[C@H]1CC[C@@H]1[C@@H]2CC[C@]2(C)[C@@H](CNNC(=N)N)CC[C@]12O` [Comp. I-aa, 17β-[2-(Amidino)]hydrazinomethyl-5β-androstane-3β,14β-diol], the “Binding ^3 H-Ouab. Displacement (-log IC50)” value in experiment [1] stood at 6.9.
On the same count and under the same terms, with `C[C@]12CC[C@H](O)C[C@H]1CC[C@@H]1[C@@H]2CC[C@]2(C)[C@@H](CNOCCCCN)CC[C@]12O` [Comp. I-al, 17β-(4-Aminobutoxyamino)methyl-5β-androstane-3β,14β-diol] the figure was 6.2.
In experiment [2], `CN(C)CCCONC[C@H]1CC[C@]2(O)[C@@H]3CC[C@@H]4C[C@@H](O)CC[C@]4(C)[C@H]3CC[C@]12C` [Comp. I-an, 17β-(3-Dimethylaminopropoxyamino)methyl-5β-androstane-3β,14β-diol] showed a 50% inhibitory concentration (IC50) of 63.1 µM.
